Test results taken from patent publication US20150126368A1, “METHOD OF PROVIDING PLANT WITH STRESS RESISTANCE” (Nippon Soda Co., Ltd., priority 2012, published 2015).

Key:
Type in all cases: in vivo
[1] = tested on: Cucumber (breed: Sagamihanjirohushinari); experiment: Evaluation test for relief effects of acidity problem on cucumber; details: hydroponic medium pH 4 from 2 days, leaf stage 17 days after spray
Procedure: Cucumber (breed: Sagamihanjirohushinari, 2 reprications) hydroponically grown up to the two leaf stage in a 100 ml flask was prepared.
A water dispersible granule of 30% ascorbic acid palmitate and pyraclostrobin adjusted to 40% with N,N-dimethylformamide were diluted with tap water to a predetermined concentration, and the diluted solution was sprayed over the whole nursery plants in a sufficient amount. The water culture medium was adjusted to pH 4 with 1 N hydrochloric acid at the elapsed time of 2 days after the spray treatment, and the above cucumber was continuously allowed to grow hydroponically. Leaf stage of the cucumber was investigated 17 days after the spray treatment. From this, disorder relief percentages were computed by the following formula.
Acidity problem relief percentage=((leaf stage of each treatment region)−(leaf stage of untreated region))/(leaf stage of untreated region)×100

[2] = tested on: Cucumber nursery plants (breed: Sagamihanjiro); experiment: Evaluation test for relief effects of low temperature injury on cucumber; details: spray, 2 days 25° C., then 9 days 10° C. daylight/7° C. dark, vs solvent only
Procedure: N,N-dimethylformamide based solutions were prepared according to the formulations shown in Tables 5 to give chemical solutions for the tests.
Cucumber nursery plants (breed: Sagamihanjiro) grown up to the 1.5 leaf stage in a greenhouse was prepared.
The above chemical solution was sprayed to the stem and leaf parts of the above cucumber nursery plants in a sufficient amount, and then air dried. They were allowed to grow at 25° C. for 2 days under conditions of 16 hours under a daylight condition and 8 hours under a dark condition. Then, they were allowed to grow for 9 days under conditions of 16 hours under a daylight condition at 10° C. and 8 hours under a dark condition at 7° C.
Disorders were evaluated by 11 levels of disorder indices from 0 (no disorders) to 10 (withering to death).
Low temperature injury relief percentages as compared with a region treated with solvent DMF only (Chemical solution 3) were computed by the following formula.
Low temperature injury relief percentage=((disorder index of region treated with solvent only)−(disorder index of each treated region))/(disorder index of region treated with solvent only)×100

Soybean (breed: Enrei) = experiment: Evaluation test for relief effects of acidity problem on soybean; details: hydroponic medium pH 4 from 2 days, disorder index 11 days after spray
Procedure: Soybean (breed: Enrei, 2 reprications) hydroponically grown up to the two leaf stage in a 100 ml flask was prepared.
A water dispersible granule of 30% ascorbyl palmitate and pyraclostrobin dissolved to 40% with N,N-dimethylformamide were diluted with tap water to a predetermined concentration, and the diluted solution was sprayed over the whole nursery plants in a sufficient amount. The water culture medium was adjusted to pH 4 with 1 N hydrochloric acid at the elapsed time of 2 days after the spray treatment, and the above soybean was continuously allowed to grow hydroponically. Disorder in the soybean was investigated at the elapsed time of 11 days after the spray treatment.
For disorder, a degree of necrosis was evaluated by 11 levels of disorder indices from 0 (no necrosis) to 10 (withering to death). From this, problem relief percentages were computed by the following formula.
Acidity problem relief percentage=((disorder index of untreated region)−(disorder index of each treated region))/(disorder index of untreated region)×100

Tomato (breed: Reiyo) = experiment: Evaluation test for relief effects of low temperature injury on tomato; details: one night outside at average 0.5° C.
Procedure: Tomato (breed: Reiyo, 4 reprications) grown up to the 3.5 leaf stage in a greenhouse was prepared.
A water dispersible granule of 30% ascorbyl palmitate and pyraclostrobin dissolved to 40% with N,N-dimethylformamide were diluted with tap water to a concentration described in Table 7, and the diluted solution was sprayed over the whole nursery plants in a sufficient amount. After air dried, they were transferred to the outside of the greenhouse at an average temperature of 0.5° C. during night to investigate a degree of low temperature injury on the next morning.
Disorders were evaluated by 5 levels of disorder indices of 0 (no disorder) to 4 (complete withering). From this, disorder relief percentages were computed by the following formula.
Low temperature injury relief percentage=(disorder index of untreated region)−(disorder index of each treatment region)/(disorder index of untreated region)×100

[3] = tested on: tomato yellow leaf curl virus (TYLCV); experiment: Test for symptom relief effects against tomato yellow leaf curl virus disease; details: for Onset percentage(%): tomato graft-inoculated, sprayed 4 times; for Onset percentage(%) / Onset inhibition percentage(%): 25 days; for Onset inhibition percentage(%): vs solvent DMF only; for Expectation value(%): expectation value of onset inhibition percentage
Procedure: N,N-dimethylformamide based solutions were prepared according to the formulations shown in Table 18 to give chemical liquids for the tests.
Tomato nursery plants (breed: Momotaro) grown up to the 8 leaf stage in a greenhouse were prepared.
Tomato nursery plants suffering from tomato yellow leaf curl virus (TYLCV) were used as inoculation sources.
A diseased plant was obliquely cut in round slices at the stem, and graft-inoculated to a tomato nursery plant. In order to prevent dryness, parafilm was wrapped around the grafted portion for protection.
After the graft inoculation, the above chemical solution was sprayed on the stem and leaf part of the tomato nursery plant in a sufficient amount. Then, the above chemical solution was sprayed 3 times at intervals of about one week in a sufficient amount. Symptoms of tomato yellow leaf curl disease were investigated at an elapsed time of 25 days.
Symptoms were evaluated by 5 levels of onset indices of 0 (with no onset) to 4 (fulminant).
Onset inhibition percentages as compared with a region treated with solvent DMF only (Chemical solution 3) were computed by the following formula.
Onset inhibition percentage=(onset index of region treated with solvent only)−(onset index of each treatment region))/(onset index of region treated with solvent only)×100
Further, the expectation values of onset inhibition percentages were computed based on the Colby's equation.
The Colby's equation is E=M+N−MN/100. In the equation, E represents the expectation value of an onset inhibition percentage (%), and M represents an onset inhibition percentage (%) calculated from measurements when the substance (A1) is used alone, and N represent an onset inhibition percentage (%) calculated from measurements when the substance (A2) is used alone.

[4] = tested on: Eustoma grandiflorum (breed: King of Snow); experiment: Evaluation test for relief effects of high temperature injury on Eustoma grandiflorum; details: ascorbyl palmitate 600 ppm, sprayed 10 times; 2 weeks at 35° C. daylight/15° C. dark
Procedure: Eustoma grandiflorum (breed: King of Snow) grown at a temperature of 22° C. and 16 hours under dark condition in a cell tray in the room was prepared. When an appropriately half were sprouted after seeding, a water dispersible granule of 30% ascorbyl palmitate was diluted with distilled water to a predetermined concentration, and the diluted solution was sprayed on the whole nursery plants in a sufficient amount. Subsequently, spraying by the same method was performed two times a week for the total of 10 times including the first application. Meanwhile, they were transferred to under conditions of 16 hours under a daylight condition at 35° C. and 8 hours under a dark condition at 15° C. at the expansion stage of a pair of true leaves 3 weeks after seeding, and allowed to grow for 2 weeks. Further, they were transferred to in a glass greenhouse and allowed to grow. Then naturalization was performed upon the expansion stage of two pairs of true leaves 8 week after seeding, and continuously allowed to grow in the greenhouse. Subsequently, the number of those bloomed out of the bolting plants was investigated.

[5] = ascorbyl palmitate 1000 ppm spray

COC(=O)N(OC)c1ccccc1COc1ccn(-c2ccc(Cl)cc2)n1 [Pyraclostrobin, reference compound]
relief percents of acidity problem(%) ([1]; Pyraclostrobin 50 ppm spray): 15.6% | relief percents of low-temperature injury(%) ([2]; Pyraclostrobin 40 ppm in DMF): 19% | relief percents of acidity problem(%) (Soybean (breed: Enrei); Pyraclostrobin 50 ppm spray): 12.5% | relief percents of low-temperature injury(%) (Tomato (breed: Reiyo); Pyraclostrobin 50 ppm spray): 25%

CCCCCCCCCCCCCCCC(=O)OC[C@H](O)[C@H]1OC(=O)C(O)=C1O [ascorbyl palmitate]
relief percents of acidity problem(%) [1, 5]: 15.6% | relief percents of low-temperature injury(%) ([2]; ascorbyl palmitate 800 ppm in DMF): 25% | relief percents of acidity problem(%) (Soybean (breed: Enrei); [5]): 43.8% | Onset percentage(%) ([3]; 500 ppm alone): 30% | Onset inhibition percentage(%) ([3]; 500 ppm alone): 40% | Onset percentage(%) ([3]; 1000 ppm alone): 20% | Onset inhibition percentage(%) ([3]; 1000 ppm alone): 60% | Expectation value(%) ([3]; 500 ppm alone): 40% | Expectation value(%) ([3]; 1000 ppm alone): 60% | Number of bloomed plants [4]: 12 | Number of bolting plants [4]: 16 | Percents of bloomed plants(%) [4]: 75.0% | relief percents of low-temperature injury(%) (Tomato (breed: Reiyo); ascorbyl palmitate 500 ppm spray): 100%
